{"source": "patent US6459017B1", "about": "“Iris transformation method” (The State of Oregon Acting By and Through the State Board …, priority 2000, dated 2002)", "key": {"[1]": {"tested_on": "non-transformed iris cells", "test": "Evaluation of selection agents: growth suppression of non-transformed iris suspension-cultured cells on MS-C medium", "assay_type": "cell-based, Iris germanica", "conditions": "for inhibition of cell growth scored visually: preliminary experiments, five concentrations", "method": "Evaluation of selection agents. […] To determine the efficacy of several commonly used agents for selecting transformed iris cells, the following substances were tested: five antibiotics (methotrexate, hygromycin, geneticin (G418), gentamycin, and phleomycin); three herbicides (glyphosate [N-(Phosphonomethyl)glycine] (Monsanto, St. Louis, Mo.), chlorsulfuron [2-Chloro-N-[[(methoxy-6-methyl-1,3,5-triazin-2-yl)amino]carbonyl]benzenesulfonamide] (E.I. Du Pont de Nemours & Co., Inc., Agricultural Products Dept., Wilmington, Del.) and glufosinate-ammonium (Basta; Hoechst Canada, Inc., Regina, Saskatchewan, Canada)); and one amino acid analog (4-methyl-tryptophan) (Sigma).\nThe liquid MS-L medium was removed from a three-week-old iris suspension culture and the cells spread on Whatman No. 1 filter papers (42.5 mm diameter) in small culture plates (60 mm×15 mm), over MS-C medium [MS-L medium with 3 g·L^−1 Phytagel (Sigma Chem. Co., St. Louis, Mo.), as described in Examples 1 and 2] containing increasing amounts of the selection agent. Plates were incubated for three weeks in the dark at 25° C. In preliminary experiments, five concentrations of each selection agent were tested and inhibition of cell growth was scored visually.\nFresh weights of resultant tissue were measured and mean values, expressed as a percentage of growth by controls (no selection agent). At least five plates were used for each concentration of selection agent."}, "[2]": {"tested_on": "suspension-cultured cells of Iris germanica", "test": "Effect of Kin and NAA in MS-I medium on regeneration potential of differentiated clumps", "assay_type": "cell-based", "conditions": "6 weeks on MS-D with 1.25 μM BA", "method": "Effect of Kin and NAA, a/one and in combination, in MS-I medium. To induce plant morphogenesis from suspension-cultured cells, 16 different combinations of NAA (0.0, 0.5, 2.5, and 12.5 μM) and Kin (0.0, 2.5, 12.5, and 62.5 μM) were evaluated. A 0.5-mL aliquot of the resuspended cells was inoculated on each 15×60 mm plastic plate containing 20 mL MS-I medium with different combinations of Kin and NAA. The cells were spread with a spoon-like spatula to form a uniform layer on the surface of MS-I medium. The plates were sealed with Parafilm® and incubated in the dark at 25° C. The number of differentiated clumps was recorded after five weeks. The clumps were collected and grouped into four size classes: large (>10 mm), medium (5 to 10 mm), small (2 to 5 mm) and very small (<2 mm). The regeneration potential of differentiated clumps was assessed by randomly sampling 30 to 60 clumps from each size class and transferring them to three to six Magenta GA-7 vessels (Sigma Chem. Co., St. Louis, Mo.) containing 50 mL of MS-D medium (Table 1) supplemented with 1.25 μM BA. They were then incubated under light (50 μmol m^−2 s^−1) at 23° C. for six weeks. The total number of regenerating clumps (i.e., differentiated clumps that continued to grow and develop on MS-D medium) was counted, and percentages of regenerating clumps that developed shoots only or plantlets (rooted shoots derived from somatic embryos) were recorded. The regenerated shoots and plantlets were transferred to MS-R medium (Table 1) to promote root development. Each Kin/NAA combination was evaluated in five plates per experiment; the entire experiment was repeated three times."}, "[3]": {"tested_on": "leaf samples from non-transformed iris plants", "test": "Leaf-bleach assay with paromomycin", "design": "species or system Iris germanica", "conditions": "200 mg·L^−1 paromomycin; leaf samples from control (non-transgenic) plants; five days", "method": "Functional assay of NPTII genes. To test the NPTII expression in transformed iris plants, the leaf-bleach assay was carried out according to Cheng et al. (Plant Physiol., 115:971-980, 1997), with minor modifications described below. Four pieces (≈7-mm) were cut from the second youngest leaf of each plant approximately one month after establishment in growing medium in the greenhouse. One leaf piece was placed in 1 mL of solution containing 25 mg·L^−1 benomyl fungicide [methyl 1-(butylcarbamoyl)-2 benzimidazolecarbamate] (Hi-Yield Chem. Co., Bonham, Tex.) and 0.01% Triton X-100 (Sigma), in a well of 24-well culture plate, as a control. Each of the remaining three pieces were placed in 1 mL of the same solution with either 50, 100, or 200 mg·L^−1 paromomycin (Sigma). Leaf samples from the non-transformed iris plants at a similar developmental stage were used as a negative control. The samples were vacuum-infiltrated for 10 minutes. The plates were then sealed with Parafilm and incubated for five days at 23° C. with a 16 hours photoperiod of 50 μmol·m^−2·s^−1 provided by cool-white fluorescent lamps. In preliminary assays, G418 and hygromycin were also tested, the latter for the functional expression of the hpt gene. The response to all three antibiotics was very similar, so paromomycin was selected to assay the rest of the putative transgenic iris plants because it was least expensive."}, "[4]": {"conditions": "0.5 μM in MS-I medium (main effect)"}, "[5]": {"conditions": "2.5 μM in MS-I medium (main effect)"}, "[6]": {"conditions": "12.5 μM in MS-I medium (main effect)"}, "[7]": {"conditions": "62.5 μM in MS-I medium (main effect)"}}}
{"molecule": "gentamycin", "values": [{"measurement": "inhibition of cell growth scored visually", "setting": "[1]", "result": "did not clearly inhibit growth"}]}
{"molecule": "O=C(O)Cc1cccc2ccccc12", "note": "[NAA, 1-naphthaleneacetic acid]", "values": [{"measurement": "Regenerating clumps (%)", "setting": "[2]; [4]", "result": 56, "unit": "%"}, {"measurement": "Regenerating clumps developing PLANTLETS (%)", "setting": "[2]; [4]", "result": 94, "unit": "%"}, {"measurement": "Regenerating clumps developing SHOOTS ONLY (%)", "setting": "[2]; [4]", "result": 6, "unit": "%"}, {"measurement": "Regenerating clumps (%)", "setting": "[2]; [5]", "result": 55, "unit": "%"}, {"measurement": "Regenerating clumps developing PLANTLETS (%)", "setting": "[2]; [5]", "result": 89, "unit": "%"}, {"measurement": "Regenerating clumps developing SHOOTS ONLY (%)", "setting": "[2]; [5]", "result": 11, "unit": "%"}, {"measurement": "Regenerating clumps (%)", "setting": "[2]; [6]", "result": 33, "unit": "%"}, {"measurement": "Regenerating clumps developing PLANTLETS (%)", "setting": "[2]; [6]", "result": 94, "unit": "%"}, {"measurement": "Regenerating clumps developing SHOOTS ONLY (%)", "setting": "[2]; [6]", "result": 7, "unit": "%"}]}
{"molecule": "c1coc(CNc2ncnc3[nH]cnc23)c1", "note": "[KIN, kinetin]", "values": [{"measurement": "Regenerating clumps (%)", "setting": "[2]; [5]", "result": 41, "unit": "%"}, {"measurement": "Regenerating clumps developing PLANTLETS (%)", "setting": "[2]; [5]", "result": 96, "unit": "%"}, {"measurement": "Regenerating clumps developing SHOOTS ONLY (%)", "setting": "[2]; [5]", "result": 5, "unit": "%"}, {"measurement": "Regenerating clumps (%)", "setting": "[2]; [6]", "result": 44, "unit": "%"}, {"measurement": "Regenerating clumps developing PLANTLETS (%)", "setting": "[2]; [6]", "result": 89, "unit": "%"}, {"measurement": "Regenerating clumps developing SHOOTS ONLY (%)", "setting": "[2]; [6]", "result": 12, "unit": "%"}, {"measurement": "Regenerating clumps (%)", "setting": "[2]; [7]", "result": 45, "unit": "%"}, {"measurement": "Regenerating clumps developing PLANTLETS (%)", "setting": "[2]; [7]", "result": 88, "unit": "%"}, {"measurement": "Regenerating clumps developing SHOOTS ONLY (%)", "setting": "[2]; [7]", "result": 12, "unit": "%"}]}
{"molecule": "O=C(O)CNCP(=O)(O)O", "note": "[glyphosate, N-(Phosphonomethyl)glycine]", "values": [{"measurement": "inhibition of cell growth scored visually", "setting": "[1]", "result": "did not clearly inhibit growth"}]}
{"molecule": "CP(=O)(O)CCC(N)C(=O)O", "note": "(centres unmarked) [Basta, glufosinate-ammonium]", "values": [{"measurement": "inhibition at 10 µg/mL", "setting": "[1]; Iris germanica, 504 h, read-out: cell growth inhibited", "result": "~70", "unit": "%"}]}
{"molecule": "phleomycin", "values": [{"measurement": "inhibition of cell growth scored visually", "setting": "[1]", "result": "did not clearly inhibit growth"}]}
{"molecule": "NC[C@@H]1O[C@H](O[C@H]2[C@@H](O)[C@H](O[C@@H]3[C@@H](O)[C@H](N)C[C@H](N)[C@H]3O[C@H]3O[C@H](CO)[C@@H](O)[C@H](O)[C@H]3N)O[C@@H]2CO)[C@H](N)[C@@H](O)[C@@H]1O", "note": "[paromomycin]", "values": [{"measurement": "leaf bleaching", "setting": "[3]", "result": "almost completely bleached"}]}
{"molecule": "CN(Cc1cnc2nc(N)nc(N)c2n1)c1ccc(C(=O)N[C@@H](CCC(=O)O)C(=O)O)cc1", "note": "[methotrexate]", "values": [{"measurement": "inhibition at 0.05 µg/mL", "setting": "[1]; Iris germanica, 504 h, 0.05 mg·L^−1, three weeks on MS-C medium, read-out: cell growth inhibited", "result": "~80", "unit": "%"}]}
{"molecule": "COc1nc(C)nc(NC(=O)NS(=O)(=O)c2ccccc2Cl)n1", "note": "[chlorsulfuron, 2-Chloro-N-[[(methoxy-6-methyl-1,3,5-triazin-2-yl)amino]carbonyl]benzenesulfonamide]", "values": [{"measurement": "inhibition at 0.5 µg/mL", "setting": "[1]; Iris germanica, 504 h, 0.5 mg·L^−1, three weeks on MS-C medium, read-out: cell growth inhibited", "result": "~90", "unit": "%"}]}
{"molecule": "Cc1cccc2[nH]cc(C[C@H](N)C(=O)O)c12", "note": "[4-methyl-tryptophane, 4-methyl-tryptophan]", "values": [{"measurement": "inhibition of cell growth scored visually", "setting": "[1]", "result": "did not clearly inhibit growth"}]}
